Data from US10563270B2, “Solid forms of menaquinols” (Gnosis S.p.A., priority 2015, dated 2020).
Values belong to the compound of their own block, whether it stands above or below them.

Assays:
[1] = system: Caco-2 human adenocarcinoma cells; test: Absorption of reduced or oxidised vitamin K2-(MK7) on cell monolayer of Caco-2 cells in vitro; format: in vitro ADME; details: for amount of vitamin internalized by the cell layer (μg of vitamin per g of homogenate): 100 μM vitamin applied to apical compartment, 1% ethanol
Experimental: Caco-2 human adenocarcinoma cells were cultured on a permeable insert inserted in the well of a microplate to form a confluent monolayer with the barrier function between an apical and a basolateral compartment. The perfect integrity of the monolayer was determined by testing for the absence of passage by lucifer yellow, a compound with low permeability. Samples of vitamin K2-(MK7), alternatively in the reduced form (menaquinol) or the oxidized form (menaquinone), were dissolved in ethanol and applied to the apical compartment, the 1% ethanol solution being added to the incubation buffer. The final solution in the incubation well was fixed at 100 μM of vitamin.
At the end of the incubation period the cell layer was removed from the insert and homogenized, and the homogenate was centrifuged. The amount of vitamin present in the supernatant was determined by HPLC. The centrifugation pellet was then resuspended in 1 ml of water, and 1.5 ml of isopropanol and 2.5 ml of hexane were added to the suspension. After stirring, the organic phase formed was analyzed, again by HPLC, for the concentration of vitamin K2 (MK7). The total of the two values was used to calculate the amount of vitamin internalized by the cell layer.

[2] = Stability tests of solid forms of reduced vitamin K2-(MK7) (oxidation of the reduced form over storage time); format: physicochemical; details: for percentage of the initial value of the reduced form: packaging Alu/vacuum; for Reduced (t/t0 %): percentage of the initial value of the reduced form

amount of vitamin internalized by the cell layer (μg of vitamin per g of homogenate) ([1]; mean of wells 1-4): 1.1 μg/g hom.
uptake by Caco-2 cell layer compared with the oxidized form ([1]; result in words, 100 μM vitamin): slightly but significantly higher uptake
amount of vitamin internalized by the cell layer (μg of vitamin per g of homogenate) ([1]; well 1): 0.8 μg/g hom.
amount of vitamin internalized by the cell layer (μg of vitamin per g of homogenate) ([1]; well 2): 1.6 μg/g hom.
amount of vitamin internalized by the cell layer (μg of vitamin per g of homogenate) ([1]; well 3): 1.0 μg/g hom.
amount of vitamin internalized by the cell layer (μg of vitamin per g of homogenate) ([1]; well 4): 0.8 μg/g hom.
SMILES: CC(C)=CCC/C(C)=C/CC/C(C)=C/CC/C(C)=C/CC/C(C)=C/CC/C(C)=C/CC/C(C)=C/Cc1c(C)c(O)c2ccccc2c1O [Reduced vitamin, menaquinol 7]

percentage of the initial value of the reduced form ([2]; T = 0): 100%
percentage of the initial value of the reduced form ([2]; T = 1 month): 95.4%
percentage of the initial value of the reduced form ([2]; T = 2 months): 98.9%
percentage of the initial value of the reduced form ([2]; T = 3 months): 97.9%
% vitamin oxidised ([2]; Time 0 days): 18.41%
% vitamin reduced ([2]; Time 0 days): 81.58%
% vitamin oxidised ([2]; Time 3 days): 23.67%
% vitamin reduced ([2]; Time 3 days): 76.24%
% vitamin oxidised ([2]; Time 6 days): 36.69%
% vitamin reduced ([2]; Time 6 days): 63.16%
% vitamin oxidised ([2]; Time 10 days): 51.48%
% vitamin reduced ([2]; Time 10 days): 48.27%
% vitamin oxidised ([2]; Time 11 days): 52.67%
% vitamin reduced ([2]; Time 11 days): 47.04%
% vitamin oxidised ([2]; Time 12 days): 61.09%
% vitamin reduced ([2]; Time 12 days): 38.44%
SMILES: CC(C)=CCC/C(C)=C/CC/C(C)=C/CC/C(C)=C/CC/C(C)=C/CC/C(C)=C/CC/C(C)=C/Cc1c(C)c(O)c2ccccc2c1O [menaquinol 7]

Reduced (t/t0 %) ([2]; Time 0 days): 100%
Reduced (t/t0 %) ([2]; Time 3 days): 4%
SMILES: CC(C)=CCC/C(C)=C/CC/C(C)=C/CC/C(C)=C/CC/C(C)=C/CC/C(C)=C/CC/C(C)=C/Cc1c(C)c(O)c2ccccc2c1O [menaquinol 7, reference compound]

amount of vitamin internalized by the cell layer (μg of vitamin per g of homogenate) ([1]; mean of wells 1-4): 0.6 μg/g hom.
amount of vitamin internalized by the cell layer (μg of vitamin per g of homogenate) ([1]; well 1): 0.4 μg/g hom.
amount of vitamin internalized by the cell layer (μg of vitamin per g of homogenate) ([1]; well 2): 0.5 μg/g hom.
amount of vitamin internalized by the cell layer (μg of vitamin per g of homogenate) ([1]; well 3): 0.6 μg/g hom.
amount of vitamin internalized by the cell layer (μg of vitamin per g of homogenate) ([1]; well 4): 0.7 μg/g hom.
SMILES: CC(C)=CCC/C(C)=C/CC/C(C)=C/CC/C(C)=C/CC/C(C)=C/CC/C(C)=C/CC/C(C)=C/CC1=C(C)C(=O)c2ccccc2C1=O [Oxidised vitamin, menaquinone 7, reference compound]
